Data as given in patent US20120009124A1, “USE OF BUFFERS FOR RADIONUCLIDE COMPLEXATION” (GUERBET, priority 2009, published 2012).
Like-named read-outs stand apart in the source and are kept apart here. Where a SMILES comes first, the peptide text is derived from it. [ ]: non-standard residue; d: D form.

Assays:
CXCR4 = CXCR4 (Homo sapiens, UniProt P61073); experiment: IC50 of cyclic peptides for targeting CXCR4; type: binding; conditions: peptide biovectors for targeting CXCR4
[1] = Text: It is also possible to combine several buffers in combination (buffer mixtures) in particular so as to optimize the buffering capacity ranges and the choice of the chelates and of the biovectors, it being specified that not all chelates necessarily have the same complexation, depending on the buffer under consideration.

Chain of CXCR4 (P61073 whole entry, species assumed): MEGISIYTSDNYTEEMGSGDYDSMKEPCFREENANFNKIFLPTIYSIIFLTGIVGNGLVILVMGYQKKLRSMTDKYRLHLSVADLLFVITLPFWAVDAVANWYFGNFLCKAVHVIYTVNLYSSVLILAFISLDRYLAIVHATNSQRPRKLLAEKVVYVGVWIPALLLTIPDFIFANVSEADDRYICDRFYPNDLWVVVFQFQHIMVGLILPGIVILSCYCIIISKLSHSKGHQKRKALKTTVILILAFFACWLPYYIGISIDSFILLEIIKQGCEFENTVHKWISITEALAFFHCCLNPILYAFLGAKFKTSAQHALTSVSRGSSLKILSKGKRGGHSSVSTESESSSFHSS

Compound	IC50 (CXCR4) [nM]	buffering capacity (pKa value +/-1) [1]	other results
N=C(N)NCCC[C@@H]1NC(=O)[C@H](CCCNC(=N)N)NC(=O)[C@@H](Cc2ccc(O)cc2)NC(=O)CNC(=O)[C@H](Cc2nc3ccccc3s2)NC1=O [Bth]	18	–	–
N=C(N)NCCC[C@@H]1NC(=O)[C@H](CCCNC(=N)N)NC(=O)[C@@H](Cc2ccc(O)cc2)NC(=O)CNC(=O)[C@H](Cc2c[nH]c3ccccc23)NC1=O [Trp] (cyclo([dY]RRWG))	13	–	–
O=C(O)O [carbonate]	–	–	buffering capacity (pKa value +/-1) ([1]; pH range): 5.35-11.33
O=C(O)C(O)C(O)C(=O)O (centres unmarked) [tartrate]	–	2.04-5.37	–
phosphate	–	1.12-13.67	–
